The assay concerns 697B cells, BCR-induced NF-kB luciferase reporter luminescence. The assay is described as follows: B-cell receptor NF-kB reporter inhibition – 697B cells, luciferase luminescence, dose response (AID 489023).

Each structure is given as a SMILES string. Calls of active or inactive are those of the source. No rule for the calls is given here. Some results are limits rather than exact numbers.

These results are taken from PubChem BioAssay AID489023 (Sanford-Burnham Center for Chemical Genomics, 2010).

Usually IC50 stands for the point on the concentration scale where inhibition reaches its midpoint. `COc1ccc(-c2ccoc2)cc1[C@H]1[C@H]2C=CC[C@@H](C)[C@@H]2C(=O)N1Cc1ccccc1`: the IC50 was > 80 µM (inactive).
Take `CN(CC1CCCO1)S(=O)(=O)c1ccc(C(=O)Nc2nc3cc4c(cc3s2)OCO4)cc1` (centres undefined): the IC50 is > 80 µM (inactive).
Take `CC1CC(C)(C)Nc2ccc(OC(=O)c3ccco3)cc21` (centres undefined): the half-inhibitory concentration (IC50) is 9.11 µM.
For the molecule `CCOC(=O)/C=C(\C)Sc1cc(=O)oc2ccccc12`, the IC50 was 1.61 µM.
Take `COc1ccccc1/C=C1\SC(=S)N(CCC(=O)Nc2nnc(C)s2)C1=O`: the IC50 was > 80 µM (inactive).
For the molecule `Cc1ccc(-c2nsc3c(N4CCC(C(N)=O)CC4)ncnc23)cc1`, the IC50 is 6.33 µM.
Turning to `COCCCn1c(=O)/c(=C\c2cccc(OC)c2OC)s/c1=C(/C#N)C(=O)Nc1ccc(C(=O)O)cc1`, the IC50 was > 80 µM (inactive).
With `O=C(Nc1ccccc1C(=O)Nc1nnc(C(F)(F)F)s1)c1ccccc1`, the IC50 is > 80 µM (inactive).
Regarding `Cc1ccc(-c2c[n+]3c(n2-c2ccccc2)SCC3)cc1`, the IC50 is > 80 µM (inactive).
On to `CCc1ccc(/C=C2/SC(=S)N(CCC(=O)Nc3cccnc3)C2=O)cc1`, for which the IC50 was 0.85 µM.
As for `COc1ccc(OCc2cccc(C(=O)NN)c2)cc1`, the IC50 is 2.43 µM.
For the molecule `Cc1nc2cc(-c3cccc(F)c3)nn2c(C)c1CCC(=O)NC(C)CCc1ccco1` (centres undefined), the IC50 was 13.8 µM.
On to `Cc1ccc(C2(c3ccc(C)cc3)CC2C(=O)Nc2ccc([N+](=O)[O-])cc2O)cc1` (centres undefined), for which the IC50 was 73.4 µM (inactive).
Take `Cn1c(=O)cc(OCC(=O)N2CCC3(CC2)OCCO3)c2ccccc21`: the IC50 is 67.5 µM (inactive).
On to `C=CCn1c(O)c(C(CC)=NC(C)c2ccccc2)c(=O)[nH]c1=O` (centres undefined), for which the IC50 is 56.4 µM (inactive).
Consider `Cc1c(CCC(=O)N2CCC[C@H]2C(=O)O)c(=O)oc2cc3oc4c(c3cc12)CCCC4`, for which the IC50 was > 80 µM (inactive).
Turning to `Cc1ccc(/C=C2\SC(=S)N(CCCC(=O)Nc3cccnc3)C2=O)cc1`, the IC50 is 0.25 µM.
With `COc1ccc(-c2ccc(C)cc2)cc1[C@H]1[C@H]2C=CC[C@@H](C)[C@@H]2C(=O)N1Cc1ccccc1` the figure was > 80 µM (inactive); with `CNC(=O)CSc1nc2nn(-c3ccccc3)c(=O)c-2c2n1CCCCC2`, 76.9 µM (inactive); with `Cc1ccc(S(=O)(=O)CC2CSc3nc4ccccc4n32)cc1` (centres undefined), > 80 µM (inactive).
On to `CCN(CC)c1ccc(/C=C2/C(=O)ON=C2C)cc1`, for which the IC50 was 21.2 µM (inactive).
On to `CC(C)C[C@@H](N)c1nnc(SCC(=O)c2ccc(Cl)cc2)o1`, for which the IC50 was 47.6 µM (inactive).
For `Cc1cc(OCC(=O)N2CCC(C(N)=O)CC2)c2c3c(c(=O)oc2c1)CCCC3`, the IC50 was > 80 µM (inactive).
On to `COc1cc2c3c(c1)c(N=NC(N)=S)c(O)n3C(C)(C)C=C2C`, for which the IC50 is > 80 µM (inactive).
Turning to `CCOC(=O)c1cc2c(=O)n3ccccc3nc2n(CC(C)C)c1=NC(=O)c1c(-c2c(F)cccc2Cl)noc1C`, the IC50 is > 80 µM (inactive).
In the case of `Cc1ccc(S(=O)(=O)Nc2ccc3c(c2)n(C)c(=O)n3C)cc1`, the IC50 is > 80 µM (inactive).
On to `N=c1c2c(n(Cc3cccc(Cl)c3)c3c1CCC3)CCCC2`, for which the IC50 was 59.9 µM (inactive).
For `Cc1ccc(C)c(-n2nnnc2Sc2nnnn2-c2ccccc2)c1`, the IC50 was 1.32 µM.
`CCN(CC(=O)Nc1c(F)cccc1F)C(=O)c1cc(S(=O)(=O)N(C)C)ccc1N1CCCC1`: the IC50 was 12.2 µM.
As for `CCn1c(=O)cc(SCC(=O)N2CCCCC2)c2ccccc21`, the IC50 is > 80 µM (inactive).
The value for `NC(=S)N=Nc1c(O)n(Cc2ccccc2)c2ccccc12` was 16.3 µM.
As for `Cc1nnc2c3ccccc3c(-c3ccccc3)nn12`, the IC50 is > 80 µM (inactive).
For `Cn1c(=O)n(C)c2cc(/C=C3/NC(=O)N(Cc4ccccc4)C3=O)ccc21`, the IC50 was > 80 µM (inactive).
On to `COc1ccc(OC)c(S(=O)(=O)Nc2ccc(-c3ccc4nnc(C)n4n3)cc2)c1`, for which the IC50 is > 80 µM (inactive).
With `COc1cc(-c2cc(=O)c3c(O)c(OC)c(OC)c(OC)c3o2)cc(OC)c1OC`, the IC50 was > 80 µM (inactive).
For the molecule `CCn1c(=O)cc(SCC(=O)N2CCN(C(=O)c3ccco3)CC2)c2ccccc21`, the IC50 is > 80 µM (inactive).
`CCNC(=O)CCc1nc(-c2ccc(C(C)(C)C)cc2)no1`: the IC50 is under 0.16 µM.
On to `NC(=O)C1CCN(C(=O)COc2ccc3ccccc3c2Br)CC1`, for which the IC50 was 39.4 µM (inactive).
Take `Cc1nc([N+](=O)[O-])c(Sc2nc3ccc([N+](=O)[O-])cc3[nH]2)n1Cc1ccccc1`: the IC50 is 8.74 µM.
Consider `COC(=O)c1[nH]c2ccc(C)cc2c1NC(=O)Nc1ccccc1OC`, for which the IC50 was > 80 µM (inactive).
In the case of `COc1cc(C(=O)Nc2cc(C)c(OCC(=O)N3CCOCC3)c(C)c2)cc(OC)c1OC`, the IC50 was > 80 µM (inactive).
Take `C=CCOc1ccccc1CN(C(=O)CCl)c1ccc2c(c1)OCO2`: the IC50 was 0.72 µM.
On to `CCn1c(CN2CCN(c3ccc(Cl)cc3)CC2)nc2ccccc21`, for which the IC50 is > 80 µM (inactive).
The value for `Cc1nn(C(C)(C)C)c(C)c1/C=N/OC(=O)Nc1ccc(Cl)c(Cl)c1` was 0.74 µM.
Regarding `CCOC(=O)C(=CNc1cc(C)ccc1C)C(=O)OCC`, the IC50 is 49.2 µM (inactive).
Turning to `COc1ccc(/C=C2\SC(=S)N(CCC(=O)Nc3ccc(O)cc3)C2=O)cc1`, the IC50 is > 80 µM (inactive).
Consider `CN(C)S(=O)(=O)c1ccc(NC(=O)N2CCN(c3ccccc3)CC2)cc1`, for which the IC50 is > 80 µM (inactive).
With `Cc1nn(C(C)(C)C)c(OC(=O)c2ccc(Br)o2)c1Sc1ccccc1` the figure was > 80 µM (inactive); with `CC1=CC(C)(C)Nc2ccc(OC(=O)C(Cc3ccccc3)N3C(=O)c4ccccc4C3=O)cc21` (centres undefined), > 80 µM (inactive).
As to `CC(C)(C)c1ccc(-c2noc(CCC(N)=O)n2)cc1`, the IC50 was under 0.16 µM.
As to `CC(C)(O)/C=C/C(=O)[C@](C)(O)C1[C@H](O)C[C@@]2(C)C3CC=C4C(C[C@H](O)[C@@H](O)C4(C)C)[C@]3(C)C(=O)C[C@]12C` (some centres undefined), the IC50 is 35.1 µM (inactive).
Take `COc1ccc(/C=C/c2ccccc2)cc1[C@H]1[C@H]2C=CC[C@@H](C)[C@@H]2C(=O)N1Cc1ccccc1`: the IC50 is > 80 µM (inactive).
With `O=C(CCCN1C(=O)S/C(=C/C=C/c2ccccc2)C1=O)Nc1ccc(C(=O)O)cc1`, the IC50 was > 80 µM (inactive).
On to `Cc1ccc(C(=O)CSc2nnc(COc3ccccc3)o2)cc1`, for which the IC50 was > 80 µM (inactive).
The value for `COc1ccc(N(CC(=O)N2CCN(c3ccc(Cl)cc3)CC2)S(=O)(=O)c2c(C)n[nH]c2C)cc1` was > 80 µM (inactive).
Consider `COc1ccc(-c2noc(CCCC(=O)Nc3ccc(C(N)=O)cc3)n2)cc1`, for which the IC50 was 8.71 µM.
On to `Cc1ccc(CSc2nnc(SCC(=O)N/N=C/C=C/c3ccccc3[N+](=O)[O-])s2)cc1`, for which the IC50 is > 80 µM (inactive).
With `CCCNC(=O)CSCc1nc(-c2ccc(SC)cc2)oc1C` the figure was 31.6 µM (inactive); with `Cc1nc2cc(-c3cccc(F)c3)nn2c(C)c1CCC(=O)N1CCC2(CC1)OCCO2`, 49.5 µM (inactive).
With `COc1ccc(C(=O)N/N=C/c2sc(N3CCOCC3)nc2-c2ccccc2)cc1OC`, the IC50 was 14.4 µM.
With `c1ccc(CCNc2ncnc3ccccc23)cc1` the figure was 60.1 µM (inactive); with `CCOc1ccc(/C=C2\SC(=S)N(CCC(=O)Nc3ccc(C(=O)O)cc3)C2=O)cc1`, 1.35 µM; with `Cn1nc(-c2ccc(N3CCOCC3)c(NS(=O)(=O)c3ccccc3)c2)c2ccccc2c1=O`, > 80 µM (inactive).
As to `CC1Cc2ccccc2N1S(=O)(=O)c1cnc(Cl)c(Cl)c1` (centres undefined), the IC50 is > 80 µM (inactive).
The value for `O=C(Nc1cccc(Br)c1)c1ccc2c(c1)SC1=NS(=O)(=O)CCN12` was 15.7 µM; that for `COc1cccc(-c2noc(CCC(=O)NCCc3ccccc3)n2)c1` was 5.65 µM; that for `Cn1c(=O)cc(OCCCC(=O)NCc2ccccn2)c2ccccc21` was > 80 µM (inactive).
With `O=C(NCCCN1CCOCC1)c1cc(-c2ccc(Br)cc2)on1` the figure was 48.1 µM (inactive); with `COc1cc(OC)cc(-c2cc3nc(C)c(CCC(=O)Nc4nc(C)cs4)c(C)n3n2)c1`, 13.2 µM.
The value for `COc1cc(-c2nc3n(n2)C(c2ccc(F)cc2)C2=C(CCCC2=O)N3)cc(OC)c1OC` (centres undefined) was 65.5 µM (inactive); that for `CCC(CC)C(=O)Nc1ccc(Sc2ccc([N+](=O)[O-])cc2)cc1` was 32.2 µM (inactive).
For the molecule `COc1ccc(NC(=O)c2nnn(Cc3cccc(F)c3)c2N)c(OC)c1`, the IC50 was > 80 µM (inactive).
With `CNC(=O)c1cc(Nc2nnc(-c3ccc(O)cc3)c3ccccc23)ccc1OC` the figure was > 80 µM (inactive); with `Cc1cc(C)c(CN2CCN(C(=O)Cn3cnc4c(NCc5ccccc5)ncnc43)CC2)c(C)c1`, 52.7 µM (inactive); with `Cc1c(CC(=O)NCCCC(=O)O)c(=O)oc2cc3c(cc12)CCC(C)(C)O3`, 6.82 µM.
The value for `Cn1c(=O)c2c(SCC(=O)Nc3ccccc3F)nc(-c3ccccc3F)nc2n(C)c1=O` was 21.8 µM (inactive); that for `CCN(CC)CCOC(=O)c1ccc(NC(=O)CCCN2C(=O)S/C(=C/c3ccc(OC)cc3)C2=S)cc1` was 2.11 µM; that for `COc1ccc(/C=C2/SC(=S)N(CCCC(=O)Nc3ccc(O)cc3)C2=O)cc1OC` was > 80 µM (inactive).
For `C=C(C)[C@@H]1CCC2(C(=O)O)CC[C@]3(C)[C@H](CC[C@@H]4[C@@]5(C)CCC(=O)C(C)(C)[C@@H]5CC[C@]43C)[C@@H]12` (some centres undefined), the IC50 is 71.6 µM (inactive).
Turning to `Cn1c(=O)n(C)c2cc(NC(=O)CSc3nnc(-c4ccccc4O)n3-c3ccccc3)ccc21`, the IC50 is > 80 µM (inactive).
Regarding `CCOCCCNc1nc2c(C)cccn2c(=O)c1/C=C1\SC(=S)N(C(C)CC)C1=O` (centres undefined), the IC50 was 36.3 µM (inactive).
With `CC(C)c1[nH]nc2c1C(c1ccco1)C(C#N)=C(N)O2` (centres undefined), the IC50 is > 80 µM (inactive).
With `CCN(CC)C(=O)c1ccc(S(=O)(=O)Cc2ccc(C)cc2)c([N+](=O)[O-])c1`, the IC50 was 3.55 µM.
Regarding `Cc1ccoc1C(=O)Nc1ccc(CC(=O)O)cc1`, the half-inhibitory concentration (IC50) is 2.09 µM.
